# Assay results as given in PubChem BioAssay AID687031 (Broad Institute, 2013).
# Test system: BHK-21 DENV2 CPE protection, ATP luminescence, 5 d
# Experiment: antiviral rescue of DENV2-infected BHK-21 cells – cell-based, ATP luminescence, cherry-pick, dose response (AID 687031)
row,SMILES,AC30 [µM]
1,Cc1ccc(C(=O)NCC(=O)NCC(c2cccs2)N2CCOCC2)cc1C (centres undefined),14.8
2,COc1ccc(C(N)c2csc(Nc3cc(Oc4ccccc4)ncn3)n2)cc1 (centres undefined),17.4
3,Nc1ncccc1C(=O)OCC(=O)N1CCN(S(=O)(=O)c2ccc(Cl)cc2)CC1,19
4,C[C@H](NC(=O)[C@H]1N[C@H]2c3ccc(-c4cccnc4)c(=O)n3C[C@H]2[C@@H]1CO)c1ccccc1,12.5
5,O=S(=O)(c1ccc2c(c1)OCCO2)N1CCCN(S(=O)(=O)c2c(F)cccc2F)CC1,17.5
6,CC(C)[C@H](NC(=O)N1C[C@H]2C[C@@H](C1)c1cccc(=O)n1C2)C(=O)Nc1ccccc1F,16.2
7,CSc1ccccc1OCc1cc(C(=O)N2CCc3[nH]cnc3C2c2ccccn2)no1 (centres undefined),9.97
8,Oc1cccc2nc3ccccc3nc12,14.4
9,CCOc1ccc2[nH]cc(S(=O)(=O)c3ccc(C)cc3)c(=O)c2c1,13
10,COc1ccc(CN2CCNC(=O)C2CC(=O)NCC2CCOCC2)c(C)c1C (centres undefined),15.7
11,Cc1noc(C)c1NC(=O)Nc1ccc2c(c1)C(=O)N([C@@H](C)CO)C[C@@H](C)[C@@H](CN(C)S(C)(=O)=O)OCCCC[C@@H](C)O2,18.6
12,CC1CCN(CCOc2ccc(OCc3ccccc3)cc2)CC1,11.3
13,C[C@H](NC(=O)CCCOc1ccc(Cl)cc1Cl)c1nnc2ccccn12,16.2
14,CCN(CC(=O)NCC(=O)Nc1cccc(C)c1C)Cc1ccccc1,19.3
15,COC(=O)[C@@H]1[C@@H](CO)[C@@H]2Cn3c(ccc(C4=CCCC4)c3=O)[C@H]1N2Cc1ccccn1,17.2
16,CC1CCCN(C(=O)c2ccc(S(=O)(=O)Nc3ccccc3Cl)cc2)C1 (centres undefined),13.5
17,Cc1cc(F)ccc1C(O)c1ncc(-c2ccccc2C(F)(F)F)[nH]1 (centres undefined),18.4
18,C[C@@H]1CCCCO[C@H](CN(C)S(=O)(=O)c2ccccc2)[C@@H](C)CN([C@@H](C)CO)C(=O)c2cc(NC(=O)c3ccncc3)ccc2O1,17.6
19,c1ccc(C2CC2)c(OCC2=NCCN2)c1,9.54
20,Cc1ccccc1S(=O)(=O)N1CC[C@@H]2[C@H](CO)Nc3ccc(-c4cccc(C#N)c4)cc3[C@@H]21,15.9
21,C[C@H](CO)N1C[C@H](C)[C@H](CN(C)C(=O)Nc2ccc(-c3ccccc3)cc2)OCc2ccccc2-c2c(n(C)c3ccccc23)C1=O,17.7
22,CCCNC(=O)C[C@H]1CC[C@@H]2[C@H](COC[C@@H](O)CN2C(=O)c2ccccn2)O1,17.3
23,NC(=O)c1ccsc1NC(=O)COC(=O)[C@@H]1CCCN1C(=O)c1cccs1,11
24,CCNS(=O)(=O)c1ccc(Br)c(C(=O)OC(C)C(=O)NCC2CCCCC2)c1 (centres undefined),2.25
25,Cc1c(C(=O)OC(C)C)sc(N)c1C(=O)OC(C)C,18.6

row,SMILES,AC30 [µM]
1,CC1CCCC(NC(=O)COC(=O)c2ccccc2Sc2ccccc2C#N)C1C (centres undefined),12.7
2,CC1CCN(C(=O)COC(=O)CNC(=O)c2ccccc2F)CC1,19.4
3,CCc1c(C2(O)CCCCC2)[nH]c2c(C(=O)OC)cc(Cl)cc12,12.3
4,COC(=O)[C@H]1CN(C(=O)c2ccccc2)C(=O)N1,5.13
5,O=C(c1ccccc1)N1CC[C@@H]2[C@H](CO)Nc3ccc(C#Cc4cccc(F)c4)cc3[C@@H]21,3.21
6,Cc1cc(C)cc(NC(=O)Cn2nnc(C(=O)NCc3cccs3)c2N)c1,13.3
7,OC(CSc1nnnn1-c1ccccc1)Cn1c2ccccc2c2ccccc21 (centres undefined),18.8
8,Cc1cc(F)cc(-c2cc(C(=O)NCC3CCCCC3)[nH]n2)c1,10
9,COC(=O)N1CCCCC1c1cc(C(=O)Nc2ccc(OC)cc2C)no1 (centres undefined),13
10,CCC[C@@H]1CCCO[C@@](C(=O)NCc2ccccn2)(C(F)(F)F)C1,10
11,O=C(C1CCOCC1)N1C[C@H]2[C@@H](c3ccccc31)[C@@H](CO)N2C(=O)c1ccccc1,18.8
12,O=C1[C@@H](Oc2ccccc2)[C@@H](c2ccncc2)N1c1ccccc1,14.2
13,COc1cccc(-c2ccc(C3[C@@H]4CN(S(=O)(=O)c5cn(C)cn5)C[C@H]3N4)cc2)c1 (some centres undefined),7.87
14,Cn1cnc(S(=O)(=O)N[C@@H]2C=C[C@H](CC(=O)N3CCN(c4ccccc4)CC3)O[C@@H]2CO)c1,17
15,CN(C)CC(=O)Nc1ccc2c(c1)[C@@H]1C[C@@H](CC(=O)NC3CCCCC3)O[C@H](CO)[C@@H]1O2,8.06
16,CCN(CC)CC(=O)N1CCCC(N2CCN(c3cccc(C(F)(F)F)c3)CC2)C1 (centres undefined),19.1
17,CC(=O)N1CCN(C(=O)COC(=O)COc2c(C)cc(C)cc2C)CC1,11.7
18,CCOC(=O)N1CCN(C(C(=O)NC2CCCC2)C(C)C)CC1 (centres undefined),9.37
19,COCCNC(=O)CCC1CCN(C/C=C/c2ccccc2OC)CC1,19.3
20,Cc1cc(OC(C)C(=O)NC2CC(C)(C)NC(C)(C)C2)c2c(C)c(C)c(=O)oc2c1 (centres undefined),2.89
21,Cc1cccc([C@@H]2[C@@H]3C(=O)N(C)C(=O)[C@@H]3[C@@H]3C(=O)Nc4ccccc4C(=O)N23)c1,18.7
22,FC(F)(F)c1cccnc1Oc1ccc(C2=NCCS2)cc1,8.01
23,O=C(O)C1C2C=CC(C2)C1C(=O)NCc1ccccc1 (centres undefined),15.5
24,CS(=O)(=O)N1C[C@@H]2N[C@H](C1)[C@@H]2c1ccc(-c2ccccc2)cc1,5.51
